Test results: patent publication US20100035911A1, “DRUG COMBINATIONS TO TREAT HYPERPROLIFERATIVE DISORDERS” (priority 2006, published 2010)

Assays:
[1] = tested on: human neuroblastoma cell line CHLA-136; test: Event-free survival of mice bearing CHLA-136 subcutaneous xenografts; type: in vivo, nu/nu mice; conditions: CHLA-136 xenograft; single agents at the drug doses employed
Source text: Treating cancer in xenografts with fenretinide+ABT-751. Administration of fenretinide and ABT-751 in combination to nu/nu mice bearing subcutaneous xenografts of multi-drug resistant neuroblastoma xenografts (tumor cell lines are described in: Keshelava N, Zuo J J, Chen P, Waidyaratine S N, Luna M C, Gomer C J, Triche T J, Reynolds C P: Loss of p53 function confers high-level multi-drug resistance in neuroblastoma cell lines. Cancer Research 61:6185-6193, 2001, and xenograft methods are described in: Reynolds, C P, Sun B C, DeClerck Y A, Moats R A: Assessing growth and response to therapy in murine tumor models. Methods in Molecular Medicine Chemosensitivity Vol 2 ed. Blumenthal R D, Totowa: Humana Press pp 335-350, 2005.
Mice were treated daily with ABT-751, and twice daily with fenretinide for 5 days/week. Fenretinide was given as a powder LXS formulation mixed with water (Maurer B J, Kalous O, Yesair D W, Wu X, Vratilova J, Maldonado V, Khankaldyyan V, Frgala T, Sun B C, McKee R T, Burgess S W, Shaw W A, Reynolds C P. Improved oral delivery of N-(4-hydroxyphenyl)retinamide with novel LYM-X-SORB™ organized lipid complex in mice. Clinical Cancer Research (In Press, 2007)). Both drugs were given to mice by gavage.

[2] = tested on: human ovarian cancer cell line, CRL-1572; test: Survival of mice bearing CRL-1572 ovarian cancer subcutaneous xenografts; type: in vivo; conditions: CRL-1572 xenografts; single agents at the drug doses employed
Source text: Fenretinide combined with taxanes is active against ovarian cancer Xenografts. Based on the surprising and favorable results observed when combining ABT-751 with fenretinide with neuroblastoma xenografts and vincristine with fenretinide for a lymphoma xenograft, we explored other types of cancer as xenografts and we also sought to test taxanes for a possible increase in activity when combined with fenretinide.

[3] = tested on: human Ramos Burkitts lymphoma cell line; test: Survival of mice bearing Ramos lymphoma subcutaneous xenografts; type: in vivo; conditions: single agents at the drug doses employed
Protocol: Treating lymphoma xenografts with fenretinide combined with vincristine. […] Testing of fenretinide+vincristine was carried out as described for fenretinide+ABT-751 in Example 1, except that vincristine was given by i.p. injection twice a week during the 5 day administration of fenretinide.

[4] = cited from earlier work

Compound: COc1ccc(S(=O)(=O)Nc2cccnc2Nc2ccc(O)cc2)cc1 [ABT-751]
- response of xenograft to single agent [1]: minimally response

Compound: CC(=O)O[C@H]1C(=O)[C@@]2(C)[C@H]([C@H](OC(=O)c3ccccc3)[C@]3(O)C[C@H](OC(=O)[C@H](O)[C@@H](NC(=O)c4ccccc4)c4ccccc4)C(C)=C1C3(C)C)[C@]1(OC(C)=O)CO[C@@H]1C[C@@H]2O [paclitaxel]
- response of tumor cell line to single agent [2]: minimally responsive

Compound: vincristine
- response of tumor cell line to single agent [3]: minimally responsive

Compound: CC1=C(/C=C/C(C)=C/C=C/C(C)=C/C(=O)Nc2ccc(O)cc2)C(C)(C)CCC1 [fenretinide, all-trans-N-(4-hydroxyphenyl)retinamide]
- response of xenograft to single agent [1]: minimally response
- response of tumor cell line to single agent [3]: minimally responsive
- solubility in aqueous solution [4]: minimally soluble
- response of tumor cell line to single agent [2]: minimally responsive
